Measured values taken from patent US8946200B2, “Pharmaceutically active nanosuspensions” (Southwest Research Institute, priority 2006, dated 2015).

How the values were obtained:
[1] = Particle size distribution of the nanoparticle suspension (Beckman Coulter PCS Submicron Particle Size Analyzer); assay type: physicochemical; settings: suspension of TCO in PBS pH 7.4, 0.5 mg/mL (FIG. 1)
Description: The particle size of the pharmaceutically active compound in the nanosuspension may be in the range of 100 nm to 1000 nm, including all values and increments therein, such as in the range of 250 nm to 1,000 nm, etc. Illustrated in FIG. 1 is an exemplary embodiment of a numerical particle size distribution of suspension of TCO in PBS having a pH of 7.4 and at a concentration of 0.5 mg/mL. […] In addition, the highest relative number percent of particles fall in the range of about 450-525 nm. Such particle size determination may be accomplished on a Beckman Coulter PCS Submicron Particle Size Analyzer. Accordingly, a nanosuspension herein may be understood as any liquid medium containing pharmaceutically active compounds having particles with a size of less than or equal to about 1000 nm.
(§1) A solution of TCO (1 mg) in hexafluoroisopropanol (HFIP) (0.5 mL) was prepared and added slowly into a magnetically stirred into phosphate buffered saline (PBS) (2 mL) having a pH of 7.4. The mixture was stirred uncovered in a fume hood for up to 24 hours. FIG. 1 illustrates the particle size distribution of suspension of TCO in pH 7.4 PBS at 0.5 mg/mL concentration. […] The clear nanoparticle suspension was further concentrated in a vacuum oven to about 1.5 mg/mL.

[2] = Concentration of the nanosuspension and appearance / physical stability; assay type: physicochemical
Description: as §1
A solution of TCO (1 mg) in hexafluoroisopropanol (0.5 mL) was prepared and added slowly into a magnetically stirred deionized water (2 mL). The mixture was stirred uncovered in a fume hood for 3 hours and further concentrated in a vacuum oven. The nanoparticle suspension in deionized water, however, could only be concentrated to about 0.6 mg/mL of concentration before growing micron-sized crystals.

With triamcinolone [TCO] the “particle size range with the highest relative number percent of particles” value [1] was 450-525 nm, the appearance of nanosuspension ([2]; 1.0 mg/ML, precipitating 2 mg/0.5 mL TCO/HFIP into 2 mL PBS) was “cloudy solution” and the “concentration to which the clear nanoparticle suspension was further concentrated” value ([2]; PBS pH 7.4, 1 mg TCO/0.5 mL HFIP into 2 mL PBS, vacuum oven) was “about 1.5 mg/mL”. The “concentration reached before growing micron-sized crystals” value ([2]; deionized water, 1 mg TCO/0.5 mL HFIP into 2 mL water, vacuum oven) was “about 0.6 mg/mL”.
